Source: ChEMBL document CHEMBL4732108, “Targeting the K11.1 (hERG) channel with allosteric modulators. Synthesis and biological evaluation of three novel series of LUF7346 derivatives” (Eur J Med Chem, 2021)
Activity calls are given as the source filed them. No cut-off for these calls is given here.

Tests used:
hERG (KCNH2) = hERG (KCNH2) (Homo sapiens, UniProt Q12809); test: Displacement of [3H]dofetilide from human ERG stably expressed in HEK293 cell membranes assessed as residual binding level at 10 uM measured after 60 mins by microbeta liquid scintillation counting method relative to control; design: species or system Membrane; settings: membranes of HEK293 cells stably expressing hERG, probe [3H]dofetilide, read-out: Activity
Sequence of hERG (KCNH2) (Q12809 whole entry): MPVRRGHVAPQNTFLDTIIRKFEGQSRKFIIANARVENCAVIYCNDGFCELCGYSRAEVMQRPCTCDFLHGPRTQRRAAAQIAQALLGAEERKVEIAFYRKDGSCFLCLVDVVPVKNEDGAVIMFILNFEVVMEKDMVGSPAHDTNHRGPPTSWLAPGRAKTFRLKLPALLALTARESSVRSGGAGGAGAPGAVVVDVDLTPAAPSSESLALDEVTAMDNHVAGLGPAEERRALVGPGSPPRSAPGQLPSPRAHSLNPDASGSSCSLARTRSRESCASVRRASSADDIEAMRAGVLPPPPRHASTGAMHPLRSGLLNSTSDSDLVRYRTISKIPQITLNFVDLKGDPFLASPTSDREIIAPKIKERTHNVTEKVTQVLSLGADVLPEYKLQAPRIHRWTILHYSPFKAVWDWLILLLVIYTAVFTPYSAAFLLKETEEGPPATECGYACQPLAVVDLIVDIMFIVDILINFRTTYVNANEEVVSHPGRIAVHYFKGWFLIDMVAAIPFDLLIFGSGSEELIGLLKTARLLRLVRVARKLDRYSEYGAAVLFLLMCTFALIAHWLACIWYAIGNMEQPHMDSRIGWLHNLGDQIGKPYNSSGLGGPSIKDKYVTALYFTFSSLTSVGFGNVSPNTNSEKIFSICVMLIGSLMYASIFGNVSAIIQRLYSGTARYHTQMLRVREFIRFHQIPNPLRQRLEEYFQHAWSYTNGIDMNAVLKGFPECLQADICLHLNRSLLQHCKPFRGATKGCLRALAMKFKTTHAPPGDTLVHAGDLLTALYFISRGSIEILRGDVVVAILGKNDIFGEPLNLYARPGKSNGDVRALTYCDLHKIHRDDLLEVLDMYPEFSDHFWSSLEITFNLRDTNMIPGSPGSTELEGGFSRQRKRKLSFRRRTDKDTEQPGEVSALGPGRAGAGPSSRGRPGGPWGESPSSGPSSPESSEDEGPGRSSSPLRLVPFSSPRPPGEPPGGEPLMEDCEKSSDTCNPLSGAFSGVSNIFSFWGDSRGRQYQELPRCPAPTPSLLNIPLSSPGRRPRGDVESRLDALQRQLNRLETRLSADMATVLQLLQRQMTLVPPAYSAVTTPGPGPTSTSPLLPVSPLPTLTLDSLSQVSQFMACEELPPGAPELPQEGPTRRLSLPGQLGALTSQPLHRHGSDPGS

[1] = tested on: Stem cell-derived cardiomyocyte; test: Effect on human iPSC-derived cardiomyocytes assessed as reduction in beating rate by measuring change in RR interval at higher concentration by microarray electrode based assay; format: functional
[2] = tested on: Stem cell-derived cardiomyocyte; test: Effect on human iPSC-derived cardiomyocytes assessed as suppression of dofetilide-induced increase in field potential duration by microarray electrode based assay; format: functional
[3] = tested on: Stem cell-derived cardiomyocyte; test: Effect on dofetilide-induced reduction in RR interval in human iPSC-derived cardiomyocytes by microarray electrode based assay; format: functional
[4] = tested on: Stem cell-derived cardiomyocyte; test: Effect on human iPSC-derived cardiomyocytes assessed as change in field potential duration by microarray electrode based assay; format: functional
[5] = target: T1, Voltage-gated inwardly rectifying potassium channel KCNH2 (Homo sapiens, UniProt Q12809); test: Displacement of [3H]dofetilide from human ERG stably expressed in HEK293 cell membranes assessed as unlabelled dofetilide IC50 at 10 uM measured after 60 mins by microbeta liquid scintillation counting method (reference value: 9.1 to 11.7 nM); design: species or system Membrane
T1 sequence (Q12809 whole entry): as above

[6] = tested on: Stem cell-derived cardiomyocyte; test: Effect on human iPSC-derived cardiomyocytes assessed as prolongation of field potential duration by microarray electrode based assay; format: functional, tissue-based
[7] = target: T1, Voltage-gated inwardly rectifying potassium channel KCNH2; test: Channel blockade of human ERG stably expressed in HEK293 cells assessed as decrease in current density at 5 uM with -60 mV holding potential measured after 5 mins by whole cell patch clamp method; settings: hek293, 5 min
[8] = tested on: Stem cell-derived cardiomyocyte; test: Effect on human iPSC-derived cardiomyocytes assessed as reduction in beating rate by measuring change in RR interval at 30 uM by microarray electrode based assay; format: functional, tissue-based
[9] = target: T1, Voltage-gated inwardly rectifying potassium channel KCNH2; test: Displacement of [3H]dofetilide from human ERG stably expressed in HEK293 cell membranes assessed as unlabelled dofetilide IC50 at 3 uM measured after 60 mins by microbeta liquid scintillation counting method (reference value: 9.1 to 11.7 nM); design: species or system Membrane
[10] = target: T1, Voltage-gated inwardly rectifying potassium channel KCNH2; test: Displacement of [3H]dofetilide from human ERG stably expressed in HEK293 cell membranes assessed as unlabelled dofetilide IC50 at 1 uM measured after 60 mins by microbeta liquid scintillation counting method (reference value: 9.1 to 11.7 nM); design: species or system Membrane
[11] = tested on: Stem cell-derived cardiomyocyte; test: Effect on dofetilide-induced reduction in RR interval in human iPSC-derived cardiomyocytes at 10 to 30 uM by microarray electrode based assay; format: functional; settings: dose 10-30 µM
[12] = tested on: Stem cell-derived cardiomyocyte; test: Effect on human iPSC-derived cardiomyocytes assessed as suppression of dofetilide-induced increase in field potential duration at 10 to 30 uM by microarray electrode based assay; format: functional; settings: dose 10-30 µM
[13] = target: T1, Voltage-gated inwardly rectifying potassium channel KCNH2; test: Negative allosteric modulation of human ERG stably expressed in HEK293 cells assessed as increase in current density at 5 uM with -60 mV holding potential measured after 5 mins by whole cell patch clamp method; settings: hek293, 5 min
[14] = tested on: Stem cell-derived cardiomyocyte; test: Effect on human iPSC-derived cardiomyocytes assessed as shortening of field potential duration by microarray electrode based assay; format: functional, tissue-based

Structure (SMILES) | activity at 1 h, 10 µM (hERG (KCNH2)) | other results
CC(C)CNC(=O)c1cccc(NC(=O)COc2ccc(C(=O)c3cc(Cl)ccc3Br)cc2)c1 | 46% | –
N#Cc1cncc(NC(=O)COc2ccc(C(=O)c3cc(Cl)ccc3Br)cc2)c1 | – | Activity [1]: Active; Activity [2]: inactive; Activity [3]: inactive; Activity [4]: inactive
O=C(COc1ccc(C(=O)c2cc(Cl)ccc2Br)cc1)Nc1ccncc1 | 26.1% | IC50 [5]: 43.7 nM
O=C(COc1ccc(C(=O)c2cc(Cl)ccc2Br)cc1)Nc1cccc(C(=O)NCC2CC2)c1 | 36.6% | –
N#Cc1cc(Cl)cc(NC(=O)COc2ccc(C(=O)c3cc(Cl)ccc3Br)cc2)c1 | 36% | –
Cc1cc(NC(=O)COc2ccc(C(=O)c3cc(Cl)ccc3Br)cc2)ccn1 | 9% | Activity [1]: inactive; Activity [6]: Active; Activity [2]: inactive; Activity [3]: inactive; Activity [7]: Active
O=C(COc1ccc(C(=O)c2cc(Cl)ccc2Br)cc1)Nc1cncc(C(=O)NCC2CC2)c1 | 2% | Activity [1]: Active; Activity [6]: Active; Activity [8]: Active; Activity [7]: Active
N#Cc1cc(NC(=O)COc2ccc(C(=O)c3cc(Cl)ccc3Br)cc2)ccc1F | 22.7% | –
Cc1ccc(NC(=O)COc2ccc(C(=O)c3cc(Cl)ccc3Br)cc2)cc1C#N | 87% | –
O=C(COc1ccc(C(=O)c2cc(Cl)ccc2Br)cc1)Nc1cccc(C(=O)NCC2CCC2)c1 | 38% | –
COc1ccc(C#N)cc1NC(=O)COc1ccc(C(=O)c2cc(Cl)ccc2Br)cc1 | 28% | –
Cc1cnccc1NC(=O)COc1ccc(C(=O)c2cc(Cl)ccc2Br)cc1 | 15% | IC50 [9]: 14.1 nM
O=C(COc1ccc(C(=O)c2cc(Cl)ccc2Br)cc1)Nc1ccnc(F)c1 | 56.1% | –
CNC(=O)c1cccc(NC(=O)COc2ccc(C(=O)c3cc(Cl)ccc3Br)cc2)c1 | 39.8% | –
N#Cc1ccc(Cl)c(NC(=O)COc2ccc(C(=O)c3cc(Cl)ccc3Br)cc2)c1 | 44% | –
O=C(COc1ccc(C(=O)c2cc(Cl)ccc2Br)cc1)Nc1ccnc(C(=O)NCC2CC2)c1 | 53% | –
O=C(COc1ccc(C(=O)c2cc(Cl)ccc2Br)cc1)Nc1cc(C(=O)NCC2CC2)ccc1Cl | 89% | –
O=C(COc1ccc(C(=O)c2cc(Cl)ccc2Br)cc1)Nc1ccc(Cl)c(C(=O)NCC2CC2)c1 | 20% | –
COc1cc(NC(=O)COc2ccc(C(=O)c3cc(Cl)ccc3Br)cc2)ccn1 | 90% | –
O=C(COc1ccc(C(=O)c2cc(Cl)ccc2Br)cc1)Nc1cc(Cl)cc(C(=O)NCC2CC2)c1 | 36% | –
COc1ccc(NC(=O)COc2ccc(C(=O)c3cc(Cl)ccc3Br)cc2)cc1C#N | 60% | –
N#Cc1cccc(NC(=O)COc2ccc(C(=O)c3cc(Cl)ccc3Br)cc2)c1F | 21% | –
O=C(COc1ccc(C(=O)c2cc(Cl)ccc2Br)cc1)Nc1ccnc(Cl)c1 | 52% | –
O=C(COc1ccc(C(=O)c2cc(Cl)ccc2Br)cc1)Nc1cccnc1 | 28.2% | –
N#Cc1cc(NC(=O)COc2ccc(C(=O)c3cc(Cl)ccc3Br)cc2)ccc1Cl | 86% | –
N#Cc1cccc(NC(=O)COc2ccc(C(=O)c3cc(Cl)ccc3Br)cc2)c1 | 20% | IC50 [10]: 28.3 nM
O=C(COc1ccc(C(=O)c2ccccc2Br)cc1)Nc1cccnc1 | 29.8% | Activity [1]: Active; Activity [11]: inactive; Activity [12]: Active; Activity [13]: Active; Activity [14]: Dose-dependent effect
O=C(COc1ccc(C(=O)c2cc(Cl)ccc2Br)cc1)Nc1cccc(C(=O)NC2CC2)c1 | 27% | –
O=C(COc1ccc(C(=O)c2cc(Cl)ccc2Br)cc1)Nc1cccc(C(=O)NCC2CC2)c1Cl | -2% | –
